Assay results: patent publication US20160251403A1, “PEPTIDE COMBINATIONS AND USES THEREOF IN TREATING DUST MITE ALLERGY” (ALK-ABELLO A/S, priority 2013, published 2016)
No end group written: not given here.

Columns and labels:
DPA10103-DPB10401 = molecular target: T1, DPA10103-DPB10401 (Homo sapiens, UniProt P04440+P20036); experiment: Competitive MHC class II binding assay, DPA10103-DPB10401
T1 sequence (P20036 29-260): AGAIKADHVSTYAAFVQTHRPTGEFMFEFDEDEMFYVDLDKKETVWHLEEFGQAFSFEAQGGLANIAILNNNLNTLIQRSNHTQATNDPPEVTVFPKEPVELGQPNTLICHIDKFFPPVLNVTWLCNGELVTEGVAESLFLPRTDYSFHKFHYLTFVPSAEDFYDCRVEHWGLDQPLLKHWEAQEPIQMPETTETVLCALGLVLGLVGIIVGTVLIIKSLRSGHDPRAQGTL
T1 sequence (P04440 30-258): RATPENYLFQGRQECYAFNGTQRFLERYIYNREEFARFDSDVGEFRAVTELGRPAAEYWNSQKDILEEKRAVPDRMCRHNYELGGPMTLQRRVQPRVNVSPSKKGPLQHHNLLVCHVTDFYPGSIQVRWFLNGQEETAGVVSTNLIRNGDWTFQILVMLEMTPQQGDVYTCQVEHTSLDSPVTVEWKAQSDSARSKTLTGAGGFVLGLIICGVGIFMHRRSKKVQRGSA
Protocol: (§1) The assay employed is a competitive MHC class II binding assay, wherein each peptide is analyzed for its ability to displace a known control binder from each of the human MHC class II allotypes shown in Table 8. Due to the nature of the competitive assay, the data for each peptide is determined as a ratio of its own IC50 to that of the control peptide.
Briefly, 0.1-1 nM of radiolabeled peptide was co-incubated at room temperature or 37° C. with purified MHC in the presence of a cocktail of protease inhibitors. Following a two- to four-day incubation, MHC bound radioactivity was determined by capturing MHC/peptide complexes on monoclonal Ab coated Lumitrac 600 plates (Greiner Bio-one, Frickenhausen, Germany), and measuring bound cpm using the TopCount (Packard Instrument Co., Meriden, Conn.) microscintillation counter. In the case of competitive assays, the concentration of peptide yielding 50% inhibition of the binding of the radiolabeled peptide was calculated. Under the conditions utilized, where [label]<[MHC] and IC50≧[MHC], the measured IC50 values are reasonable approximations of the true Kd values (Cheng and Prusoff 1973; Gulukota et al. 1997). Each peptide was tested at six different concentrations covering a 100,000-fold dose range in three or more independent experiments. […]

DPA10201-DPB11401 = experiment: Competitive MHC class II binding assay, DPA10201-DPB11401; conditions: read-out: HLA-DPA10201-DPB11401; positive binding at cutoff 1000 nM
Protocol: as §1
Assays to quantitatively measure peptide binding to purified class II MHC molecules are based on the inhibition of binding of a high affinity radiolabeled peptide to purified MHC molecules, and were performed essentially as detailed elsewhere (Sidney et al. 2008; Sidney et al. 2010b, a; Greenbaum et al. 2011; Sidney et al. 2001, Sidney et al 2013, McKinney et al 2013). Briefly, 0.1-1 nM of radiolabeled peptide was co-incubated at room temperature or 37° C. with purified MHC in the presence of a cocktail of protease inhibitors. Following a two- to four-day incubation, MHC bound radioactivity was determined by capturing MHC/peptide complexes on monoclonal Ab coated Lumitrac 600 plates (Greiner Bio-one, Frickenhausen, Germany), and measuring bound cpm using the TopCount (Packard Instrument Co., Meriden, Conn.) microscintillation counter. […] Under the conditions utilized, where [label]<[MHC] and IC50≧[MHC], the measured IC50 values are reasonable approximations of the true Kd values (Cheng and Prusoff 1973; Gulukota et al. 1997). […]

IC50 (DPA10103-DPB10401) [nM] | IC50 (DPA10201-DPB11401) [nM] | Sequence
< 1000 |  | DNGYGYFAANIDLMMIEE [pep-010]
 | < 1000 | LVGDNGVLASAIATHAKIRD [pep-110]
